In one assay the test system is Human whole blood pERK. Nature of the assay: Assay 11: DGK Human Whole Blood pERK Assay. Conditions: anti-CD3 stimulation, pERK positive within CD8 positive population, starting concentration 20 μM, read-out: DGK HWB pERK IC50. Format: cell-based. As to the method: Assay 11: DGK Human Whole Blood pERK Assay
Human whole blood ERK phosphorylation assay was performed with human venous whole blood obtained from healthy donors (drawn with Heparin as anti-coagulant). Serial dilutions of compounds (11 points, 3-fold) in DMSO were added to 384 well plates at 20 nL/well using an ECHO 550 acoustic dispenser (Labcyte) to achieve final starting concentration of 20 μM in assay. Heparinized human whole blood was added to the compound plate at 9 μL per well and incubated for one hour at 37° C. in a humidified 95%, air/5% CO2 incubator. After one hour of compound incubation, 1 μL of human anti-CD3 antibody (in-house) in the presence of cross-linking antibody goat anti-mouse IgG (4 μg/mL) was added to the well at 1 μg/mL final concentration for stimulation of pathway and additionally incubated for 15 minutes at 37° C. Stimulation was stopped by adding 90 μL Fix/Lyse buffer (BD 558049). Cells were washed and stained with anti-CD8 PE (BD 555635) antibodies for 60 minutes at room temperature, washed again, and permeabilized on ice using Perm III buffer (BD 558050) for 30 minutes. Cells were then stained with an Alexa Fluor® 647 anti-ERK1/2 Phospho (Thr202/Tyr204) Antibody (Bioleged 675504) for 60 minutes at 1:50 dilution. Samples were washed and resuspended in dPBS containing 1% BSA (dPBS, Gibco 14190136; BSA, Sigma-Aldrich A9205). Samples analyzed using the Intellicyt® iQue Screener PLUS. The pERK activation was quantitated by the percentage of pERK positive population within CD8 positive population.

For a further assay, the system named is Human whole blood IFN-γ. The experiment in a line: Assay 10: Human Whole Blood IFN-γ Assay. The following applies: anti-CD3 and anti-CD28 stimulation, 100% = 3 μM reference compound, read-out: INFg Whole Blood Normalized Agonist EC50. The assay is classed as cell-based. The procedure: Assay 10: Human Whole Blood IFN-γ Assay
Human venous whole blood (22.5 μL per well), obtained from healthy donors, was pre-treated with compounds for one hour at 37° C. in a humidified 95% air/5% CO2 incubator. The blood was stimulated with 2.5 μL anti-human CD3 and anti-CD28 mAb at a final concentration of 1 μg/mL each for 24 hours at 37° C. IFN-7 in the supernatants was measured using AlphLISA kit (Cat #AL217).

In assay [1] the target is T1, DGKα (Homo sapiens (Human), UniProt P23743). The experiment in a line: Assay 2: In Vitro DGK Inhibition Assays, Method B (DGKα ADPGLO). Format: biochemical. The following applies: 150 μM ATP. As to the method: (§1) Assay 2: In Vitro DGK Inhibition Assays—Method B
(§2) The DGKα and DGKζ reactions were performed using either extruded liposome (DGKα and DGKζ LIPGLO assays) or detergent/lipid micelle substrate (DGKα and DGKζ assays). The reactions were carried out in 50 mM MOPS pH 7.5, 100 mM NaCl, 10 mM MgCl2, 1 μM CaCl2), and 1 mM DTT (assay buffer). The reactions using a detergent/lipid micelle substrate also contained 50 mM octyl B-D-glucopyranoside. The lipid substrate concentrations were 11 mM PS and 1 mM DAG for the detergent/lipid micelle reactions. The lipid substrate concentrations were 2 mM PS, 0.25 mM DAG, and 2.75 mM PC for the extruded liposome reactions (5 mM total lipid). The reactions were carried out in 150 μM ATP. The enzyme concentrations for the DGKα and DGKζ were nM.
(§3) The compound inhibition studies were carried out as follows: 25 nL droplets of each test compound (top concentration 10 mM with 11 point, 3-fold dilution series for each compound) solubilized in DMSO were transferred to wells of a white 1536 well plate (Corning 3725). A 5 mL enzyme/lipid substrate solution at 2× final reaction concentration was prepared by combining 2.5 mL 4× enzyme solution (20 nM DGKα or DGKζ (prepared as described below) in assay buffer) and 2.5 mL of either 4× liposome or 4× detergent/lipid micelle solution (compositions described below) and incubated at room temperature for 10 minutes. Next, 1 μL 2× enzyme/lipid substrate solution was added to wells containing the test compound and reactions were initiated with the addition of 1 μL 300 uM ATP. The reactions were allowed to proceed for 2 hr, after which 2 μL Glo Reagent (Promega V9101) was added and incubated for 40 minutes. Next, 4 μL Kinase Detection Reagent was added and incubated for 30 minutes. Luminescence was recorded using an EnVision microplate reader. […] The compounds were evaluated at 11 concentrations to determine IC50.
The detergent/lipid micelle was prepared by combining 15 g phosphatidylserine (Avanti 840035P) and 1 g diacylglycerol (8008110) and dissolving into 150 mL chloroform in a 2 L round bottom flask. Chloroform was removed under high vacuum by rotary evaporation. The resulting colorless, tacky oil was resuspended in 400 mL 50 mM MOPS pH 7.5, 100 mM NaCl, 20 mM NaF, 10 mM MgCl2, 1 μM CaCl2), 1 mM DTT, and 200 mM octyl glucoside by vigorous mixing. The lipid/detergent solution was split into 5 mL aliquots and stored at −80° C.
The lipid composition was 5 mol % DAG (Avanti 8008110), 40 mol % PS (Avanti 840035P), and 55 mol % PC (Avanti 850457) at a total lipid concentration of […] for the liposome solution. The PC, DAG, and PS were dissolved in chloroform, combined, and dried in vacuo to a thin film. The lipids were hydrated to 20 mM in 50 mM MOPS pH 7.5, 100 mM NaCl, 5 mM MgCl2, and were freeze-thawed five times. The lipid suspension was extruded through a 100 nm polycarbonate filter 10-12 times. Dynamic light scattering was carried out to confirm liposome size (50-60 nm radius). The liposome preparation was stored at 4° C. for as long as four weeks.
Human MA-hDGKα-(S9-S727)-Ct-TVMV-His-pFBgate and full length human DGK-ζ-transcript variant-2-TVMV-His-pFBgate baculovirus samples were generated using the Bac-to-Bac baculovirus expression system (Invitrogen) according to the manufacturer's protocol (note: MA- in name of DGKα reagents indicates two extra amino acids added prior to Ser-9). The DNA used for expression of the DGK-α(9-727) and DGK-C have SEQ ID NOs: 5 and 3, respectively. […]
Target sequence in this assay (P23743 other isoform, or with tags, fused parts or gaps): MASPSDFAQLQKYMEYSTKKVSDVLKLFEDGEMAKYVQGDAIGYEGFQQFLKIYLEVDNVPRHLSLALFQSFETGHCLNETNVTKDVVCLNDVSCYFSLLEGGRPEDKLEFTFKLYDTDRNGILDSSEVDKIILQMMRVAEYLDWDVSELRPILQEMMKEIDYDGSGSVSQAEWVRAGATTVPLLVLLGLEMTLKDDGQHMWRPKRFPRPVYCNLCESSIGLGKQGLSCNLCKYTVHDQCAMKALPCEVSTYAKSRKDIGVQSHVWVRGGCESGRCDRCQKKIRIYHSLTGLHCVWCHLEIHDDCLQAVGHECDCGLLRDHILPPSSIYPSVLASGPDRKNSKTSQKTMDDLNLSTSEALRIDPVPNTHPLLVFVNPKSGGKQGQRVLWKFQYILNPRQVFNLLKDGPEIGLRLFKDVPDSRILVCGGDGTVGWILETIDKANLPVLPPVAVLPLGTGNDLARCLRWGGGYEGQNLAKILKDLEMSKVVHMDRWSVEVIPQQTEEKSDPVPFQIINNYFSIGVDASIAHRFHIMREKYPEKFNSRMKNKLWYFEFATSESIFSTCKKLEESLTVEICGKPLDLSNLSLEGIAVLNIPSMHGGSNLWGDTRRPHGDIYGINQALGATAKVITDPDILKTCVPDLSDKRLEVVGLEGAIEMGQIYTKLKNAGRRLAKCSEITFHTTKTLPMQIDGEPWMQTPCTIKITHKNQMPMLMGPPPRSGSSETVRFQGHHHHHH

A further assay deals with DGKζ (Homo sapiens (Human), UniProt Q13574). Nature of the assay: Assay 1 or 2: In Vitro DGK Inhibition Assays (DGKζ LIPGLO, extruded liposome). The assay is classed as biochemical. The following applies: extruded liposome substrate, 150 μM ATP. As to the method:
(§4) Assay 1: In Vitro DGK Inhibition Assays—Method A
as §2, with “reactions.” for “reactions (5 mM total lipid).”, “5 nM” for “nM.”
as §3, with “follows: 50” for “follows: 25”, “mL enzyme/substrate” for “mL enzyme/lipid substrate”, “2× enzyme/substrate” for “2× enzyme/lipid substrate”, “for 1” for “for 2”
(§5) The lipid composition was 5 mol % DAG (Avanti 8008110), 40 mol % PS (Avanti 840035P), and 55 mol % PC (Avanti 850457) at a total lipid concentration of 15.2 mg/mL for the 4× liposome solution. The PC, DAG, and PS were dissolved in chloroform, combined, and dried in vacuo to a thin film. The lipids were hydrated to 20 mM in 50 mM MOPS pH 7.5, 100 mM NaCl, 5 mM MgCl2, and were freeze-thawed five times. The lipid suspension was extruded through a 100 nm polycarbonate filter eleven times. […] The liposome preparation was stored at 4° C. for as long as four weeks.
(§6) Baculovirus amplification was achieved using infected Sf9 cells at 1:1500 virus/cell ratios, and grown for 65 hours at 27° C. post-transfection.
(§7) The cells were lysed using nitrogen cavitation method with a nitrogen bomb (Parr Instruments), and the lysates were clarified by centrifugation. […] The three steps column chromatography included nickel affinity resin capture (i.e. HisTrap FF crude, GE Healthcare), followed by size exclusion chromatography (i.e. HiLoad 26/600 Superdex 200 prep grade, GE Healthcare for DGK-alpha, and HiPrep 26/600 Sephacryl S 300_HR, GE Healthcare for DGK-zeta). The third step was ion exchange chromatography, and differed for the two isoforms. DGKα was polished using Q-Sepharose anion exchange chromatography (GE Healthcare). DGKζ was polished using SP Sepharose cation exchange chromatography (GE Healthcare). The proteins were delivered at concentrations of ≥2 mg/mL. The formulation buffers were identical for both proteins: 50 mM Hepes, pH 7.2, 500 mM NaCl, 10% v/v glycerol, 1 mM TCEP, and 0.5 mM EDTA.
as §1
The DGKα and DGKζ reactions were performed using either extruded liposome (DGKα and DGKζ LIPGLO assays) or detergent/lipid micelle substrate (DGKα and DGKζ assays).

In assay [2] the target is T1, DGKα. Nature of the assay: Assay 1: In Vitro DGK Inhibition Assays, Method A (DGKα LIPGLO, extruded liposome). The following applies: extruded liposome substrate, 150 μM ATP. The assay is classed as biochemical. The procedure:
as §4
as §2, with “reactions.” for “reactions (5 mM total lipid).”, “5 nM” for “nM.”
as §3, with “follows: 50” for “follows: 25”, “mL enzyme/substrate” for “mL enzyme/lipid substrate”, “2× enzyme/substrate” for “2× enzyme/lipid substrate”, “for 1” for “for 2”
as §5, §6, §7
Target sequence in this assay (P23743 whole entry): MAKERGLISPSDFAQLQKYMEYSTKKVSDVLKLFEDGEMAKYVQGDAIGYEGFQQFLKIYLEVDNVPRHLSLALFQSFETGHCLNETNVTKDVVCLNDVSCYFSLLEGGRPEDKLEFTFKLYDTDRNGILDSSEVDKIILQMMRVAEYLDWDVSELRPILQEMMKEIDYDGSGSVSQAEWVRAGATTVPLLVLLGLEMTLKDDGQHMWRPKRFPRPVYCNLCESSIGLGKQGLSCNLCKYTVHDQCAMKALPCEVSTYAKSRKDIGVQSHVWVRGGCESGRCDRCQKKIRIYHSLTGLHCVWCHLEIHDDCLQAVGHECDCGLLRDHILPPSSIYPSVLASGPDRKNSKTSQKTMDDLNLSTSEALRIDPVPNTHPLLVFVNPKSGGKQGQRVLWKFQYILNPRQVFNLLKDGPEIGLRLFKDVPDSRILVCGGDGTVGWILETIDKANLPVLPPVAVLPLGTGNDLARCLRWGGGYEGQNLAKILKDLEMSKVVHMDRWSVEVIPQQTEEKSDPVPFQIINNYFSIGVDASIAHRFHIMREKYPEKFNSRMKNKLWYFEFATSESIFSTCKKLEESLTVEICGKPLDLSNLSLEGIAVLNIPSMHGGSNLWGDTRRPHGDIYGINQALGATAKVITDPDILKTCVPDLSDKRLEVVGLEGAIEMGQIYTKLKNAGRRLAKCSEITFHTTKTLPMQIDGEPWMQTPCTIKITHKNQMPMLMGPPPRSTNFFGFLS

IC50 and EC50 data for seven molecules are collected here from patent US12454531B2, “Substituted piperazine derivatives useful as T cell activators” (BRISTOL-MYERS SQUIBB COMPANY, priority 2019, dated 2025).

Like-named read-outs stand apart in the source and are kept apart here.

Chain of DGKζ (Q13574 other isoform, or with tags, fused parts or gaps): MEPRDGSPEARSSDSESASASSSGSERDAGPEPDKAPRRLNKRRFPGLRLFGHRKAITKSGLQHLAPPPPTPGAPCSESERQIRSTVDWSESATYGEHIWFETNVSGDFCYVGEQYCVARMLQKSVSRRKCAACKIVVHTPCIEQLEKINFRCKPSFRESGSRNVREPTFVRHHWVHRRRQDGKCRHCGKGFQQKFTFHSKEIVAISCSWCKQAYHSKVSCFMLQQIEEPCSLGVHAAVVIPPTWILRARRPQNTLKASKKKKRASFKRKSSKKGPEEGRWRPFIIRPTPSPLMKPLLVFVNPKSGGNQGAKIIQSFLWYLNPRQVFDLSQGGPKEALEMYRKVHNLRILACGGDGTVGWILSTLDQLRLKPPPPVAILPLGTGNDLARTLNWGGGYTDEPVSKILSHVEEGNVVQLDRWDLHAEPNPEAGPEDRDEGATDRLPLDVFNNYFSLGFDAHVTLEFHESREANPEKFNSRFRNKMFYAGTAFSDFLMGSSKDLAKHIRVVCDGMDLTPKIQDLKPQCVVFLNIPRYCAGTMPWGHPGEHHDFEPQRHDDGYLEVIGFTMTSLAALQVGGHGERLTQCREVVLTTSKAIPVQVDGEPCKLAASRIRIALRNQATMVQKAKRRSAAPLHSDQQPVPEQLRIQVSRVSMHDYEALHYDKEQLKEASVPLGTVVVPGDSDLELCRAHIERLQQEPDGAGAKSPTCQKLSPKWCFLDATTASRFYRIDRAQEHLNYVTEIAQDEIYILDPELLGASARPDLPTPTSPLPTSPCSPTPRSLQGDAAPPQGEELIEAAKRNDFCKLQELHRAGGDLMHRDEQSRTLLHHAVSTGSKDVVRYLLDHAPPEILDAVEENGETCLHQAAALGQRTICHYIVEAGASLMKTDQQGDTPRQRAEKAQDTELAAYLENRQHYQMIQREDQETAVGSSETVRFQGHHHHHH

For orientation: IC50 means the concentration that inhibits the measured activity by half. A word on the EC50: it is the concentration giving half of the maximal effect. In the case of `CC(C)OC(=O)C(c1ccc(F)cc1)N1C[C@H](C)N(c2cc(=O)n(C)c3ccc(C#N)nc23)C[C@H]1C` (single isomer, unassigned) [Example 2], in the assay with Human whole blood pERK (Homo sapiens, CD8 positive), the IC50 turned out to be 80 nM. The EC50 with Human whole blood IFN-γ (24 hours) came to 60 nM.
As to `CC[C@H]1CN(C(C(=O)NCCOC)c2ccc(C(F)(F)F)cc2)[C@H](CC)CN1c1nc(=O)n(C)c2ccc(C#N)nc12` (single isomer, unassigned) [Example 55], the midpoint of inhibition against DGKα [1], the IC50, lay at 10 nM.
On the same count and under the same terms, for `C#CCCC1(CCCOC(=O)C(c2ccc(OC)cc2)N2C[C@H](C)N(c3nc(=O)n(C)c4ccc(C#N)nc34)C[C@H]2C)N=N1` (single isomer, unassigned) [Example 60] the value was 180 nM.
`C[C@@H]1CN(c2cc(=O)n(C)c3ccc(C#N)nc23)[C@@H](C)CN1C(C(=O)Nc1ccn(C)n1)c1ccc(F)cc1` (stereo partly drawn) [Example 15, 2-((2R,5S)-4-(6-cyano-1-methyl-2-oxo-1,2-dihydro-1,5-naphthyridin-4-yl)-2,5-dimethylpiperazin-1-yl)-2-(4-fluorophenyl)-N-(1-methyl-1H-pyrazol-3-yl)acetamide]: the half-maximal inhibitory concentration (IC50) at DGKζ was 9840 nM; in the assay with Human whole blood pERK it was 20000 nM; against DGKα [2], 279000 nM. Besides, the EC50 in the assay with Human whole blood IFN-γ (Homo sapiens, 24 h) came out at 20000 nM.
As for `C[C@@H]1CN(c2cc(=O)n(C)c3ccc(C#N)nc23)[C@@H](C)CN1C(C(=O)Nc1ccn(C)n1)c1ccc(F)cc1` (stereo partly drawn) [Example 16, 2-((2R,5S)-4-(6-cyano-1-methyl-2-oxo-1,2-dihydro-1,5-naphthyridin-4-yl)-2,5-dimethylpiperazin-1-yl)-2-(4-fluorophenyl)-N-(1-methyl-1H-pyrazol-3-yl)acetamide], the IC50 on DGKζ came to 1340 nM; in the assay with Human whole blood pERK, 5930 nM; on DGKα [2], 500 nM. Also, the EC50 with Human whole blood IFN-γ (24 hours) worked out at 14400 nM.
On to `CNC(=O)C(c1ccc(F)cc1)N1C[C@H](C)N(c2cc(=O)n(C)c3ccc(C#N)nc23)C[C@H]1C` (stereo partly drawn) [Example 26, 2-((2R,5S)-4-(6-cyano-1-methyl-2-oxo-1,2-dihydro-1,5-naphthyridin-4-yl)-2,5-dimethylpiperazin-1-yl)-2-(4-fluorophenyl)-N-methylacetamide], for which the IC50 in the assay on Human whole blood pERK (Homo sapiens, CD8 positive) is 13100 nM. For the same molecule, in the assay with Human whole blood IFN-γ (24 hours), the EC50 worked out at 20000 nM.
As for `CC(C)N(C)C(=O)CC(c1ccc(F)cc1)N1C[C@H](C)N(c2cc(=O)n(C)c3ccc(C#N)nc23)C[C@H]1C` (stereo partly drawn) [Example 41, 3-[(2R,5S)-4-(6-cyano-1-methyl-2-oxo-1,2-dihydro-1,5-naphthyridin-4-yl)-2,5-dimethylpiperazin-1-yl]-3-(4-fluorophenyl)-N-methyl-N-(propan-2-yl)propanamide], the IC50 against DGKζ was 390 nM; with Human whole blood pERK (Homo sapiens, CD8 positive), 410 nM; on DGKα [2] it was 1140 nM. Moreover, the EC50 in the assay with Human whole blood IFN-γ (Homo sapiens, 24 h) was 1590 nM.
